Measured values as given in paper PMC11215077, “Antiviral activity of temporin-1CEb analogues against gingival infection with herpes simplex virus type 1” (Frontiers in Oral Health, 2024).
≈ marks a conversion by molar mass, not a printed value. Square brackets hold non-standard residues; d marks the D form. Peptide text beside a SMILES is read from it. AEEA = NCCOCCOCC(=O)O

Experiments:
[1] = tested on: HSV-1 clinical strains (294.1, 615.9, C08R, C10B); experiment: Viral replication assay with HSV-1 clinical strains; assay type: cell-based, herpes simplex virus type 1; conditions: 15 μg/ml, qPCR 48 h p.i.
Method: HSV-1 strain F was acquired from American Type Culture Collection (VR 733). Clinical isolates of HSV-1 (294.1, 615.9, C08R, C10B) were kindly provided by Donald M. Coen from Department of Biological Chemistry and Molecular Pharmacology, Harvard Medical School, Boston. HSV-1 strains were propagated and titrated on Vero cells.
Vero E6 or TIGKs cells were seeded in 12-well plates and cultured for 48 h. Next, the medium was removed and replaced with a fresh medium supplemented with DAL-PEG-LK6 and CPP1-PEG-LK6 (15 μg/ml). After 30 min of incubation at 37°C, cells were infected with HSV-1 at TCID50 400 /ml or treated with mock. After 2 h of infection at 37°C, unbound viral particles were removed by washing with PBS, and culture media supplemented with peptide conjugates were applied. Following 48 h of incubation, media were collected, and the quantity of HSV-1 DNA copies was assessed using titration and qPCR.
Viral DNA was isolated from the conditioned media or the apical washes of inserts (OTG model) using Viral DNA/RNA Isolation Kit (A&A Biotechnology). The virus yield assessed by quantitative real-time PCR (qPCR). […] DNA quantification standards were prepared. […] The number of copies per mL was estimated after the concentration of linearized DNA was assessed spectrophotometrically.

HSV-1 [2] = experiment: Antiviral activity in 3D organotypic model of human gingiva (OTG); assay type: cell-based, herpes simplex virus type 1
Method: Protocol was described previously ([34]). Briefly, to prepare 3D cultures, 150,000 gingival fibroblasts suspended in 10% FBS in DMEM were mixed with 2.4 ml of ice-cold Matrigel® (Corning) (final concentration 7 mg/ml) and placed in the middle of 12-well cell culture inserts (Greiner). Three days later, 1 × 10^6 TIGK cells suspended in EPM1 were added to the top of the insert. On the ninth day after the start of the procedure, the old culture medium was removed and EPM2 was added to the bottom of the insert. The epithelial layer on the top was exposed to the air, which promotes epithelial differentiation and then stratification. About 8–10 days after air-liquid interphase, 3D cultures of gingiva were used for further experiments.
The apical surface of OTG model was washed three times with PBS and then inoculated with 100 μl of viral stock (TCID50 400 /ml) in the presence of DAL-PEG-LK6 or CPP1-PEG-LK6 (15 μg/ml) for 2 h at 4°C. Following incubation, the unbound HSV-1 was removed by washing with PBS for 10 min at 37°C, and the OTG cultures were maintained at an air-liquid interface for the rest of the experiment. To determine viral yield, 120 μl of PBS was applied to the apical surface of the OTG, and harvested for DNA isolation after 10 min of incubation at 37°C.
Briefly, cell inserts were fixed in 10% formaldehyde at 4°C for 1 h. After embedding in paraffin, 3D cultures were cut into 5 μm sections and stained with H&E solution. For immunohistochemical analysis, slides were incubated for 1 h at room temperature in blocking buffer (5% normal goat serum, 0.1% saponin in PBS) and stained with primary antibodies anti-HSV-1 (1:100, 1% normal goat serum, 0.1% saponin in PBS; Abcam) and secondary antibodies: goat anti-rabbit conjugated with Alexa Fluor 488 (1:2000; Cell Signaling). Finally, cell nuclei were stained with ProLong Antifade Mounting Medium with DAPI. Slides were visualized with EVOS FL Cell Imaging System (Thermo Fisher Scientific).
(§1) Viral DNA was isolated from the conditioned media or the apical washes of inserts (OTG model) using Viral DNA/RNA Isolation Kit (A&A Biotechnology). The virus yield assessed by quantitative real-time PCR (qPCR). The reaction was carried out in a CFX96 Touch Real-Time PCR Detection System (Bio-Rad), in a 10 μl reaction mixture consisting of TaqMan^TM Fast Advanced Master Mix, TaqMan^TM Microbe Detection assay against HSV-1 (Vi04230116_s1) and 1 μl of viral DNA. The temperature profile was 10 s at 95°C, followed by 40 cycles of 3 s at 95°C and 20 s at 60°C. DNA quantification standards were prepared. In summary, a fragment of viral DNA was amplified using the primers listed above and cloned into the pTZ57R/T plasmid using the InsTAclone PCR cloning kit. The plasmid was propagated in E. coli, purified with the GeneJet Plasmid Miniprep Kit, and digested with the EcoR1 restriction enzyme. The number of copies per mL was estimated after the concentration of linearized DNA was assessed spectrophotometrically.

HSV-1 [3] = experiment: Virion integrity assay; assay type: cell-based, herpes simplex virus type 1; conditions: virions pre-treated 1 h at RT with 15 μg/ml, then TIGKs infected; qPCR up to 48 h p.i.; compared to Triton X-100
Method: HSV-1 samples were incubated with DAL-PEG-LK6 and CPP1-PEG-LK6 (15 μg/ml) for 1 h at room temperature on a shaker. Additionally, Triton X-100 was used as a positive control. Next, the mixtures were diluted to decrease tested molecules concentrations (0.65 ng/ml) and were used to infect TIGKs monolayers. After 48 h of incubation, supernatants were collected, and the quantity of HSV-1 DNA copies was determined using qPCR.
as §1, with “The plasmid was propagated in E. coli, purified with the GeneJet Plasmid Miniprep Kit, and digested with the EcoR1 restriction enzyme.” left out

Method for in vitro: The viability of Vero E6 and TIGKs cells was examined by the XTT Cell Viability Assay kit (Biological Industries, USA). Briefly, cells were treated with indicated concentrations of the peptide conjugates for 48 h at 37°C. Next, the fresh medium was added to the cells and 50 μl of the activated XTT reagent [2,3-bis(2-methoxy-4-nitro-5-sulphenyl)-2H-tetrazolium-5-carboxanilide] was added and further incubated for 2 h at 37°C. Absorbance was measured at a wavelength of 480 nm using FlexStation 3 microplate reader (Molecular Device, Wokingham, UK). The results were expressed normalized against a control of untreated cells (100% viability). To assess the effect of peptide conjugate on the integrity of the plasma membrane, the LDH release assay was performed using the CytoTox96 nonradioactive cytotoxicity assay kit (Promega, Madison, WI, USA) according to the manufacturer's instructions. Cytotoxicity was calculated with the formula: % cytotoxicity = 100 × (experimental LDH release/ maximum LDH release), where maximum LDH release is after lysis solution addition (Triton X-100). Relative amounts of LDH release were measured (absorbance at 490 nm) using FlexStation 3 microplate reader (Molecular Device, Wokingham, UK). […]
Data were expressed as means ± SD. Statistical significance was determined using unpaired t-test, one-way ANOVA, and/or two-way ANOVA for direct comparisons between single groups. […]

In the case of `CC[C@H](C)[C@H](NC(=O)COCCOCCNC(=O)[C@@H](NC(=O)[C@H](CC(C)C)NC(=O)[C@H](Cc1ccc(O)cc1)NC(=O)[C@@H](NC(=O)[C@H](Cc1ccccc1)NC(=O)[C@@H]1CCCN1)C(C)C)[C@@H](C)CC)C(=O)N[C@@H](CCCCN)C(=O)N[C@@H](CCCCN)C(=O)N[C@H](C(=O)N[C@@H](CC(C)C)C(=O)N[C@@H](CO)C(=O)N[C@@H](CCCCN)C(=O)N[C@H](C(=O)N[C@@H](CCCCN)C(=O)N[C@@H](CCCCN)C(=O)N[C@@H](CC(C)C)C(=O)N[C@@H](CC(C)C)C(=O)N[C@@H](CCCCN)C(N)=O)[C@@H](C)CC)[C@@H](C)CC` [CPP1-PEG-LK6] (H-PFVYLI[AEEA]IKKILSKIKKLLK-NH2), the “activity against HSV-1 clinical strains” value ([1]; Figure 4) is reported as “inhibits all selected HSV-1 clinical strains”, the “inhibition of replication of clinical strains” value ([1]; all tested strains: 294.1, C08R (drug-sensitive), 615.9, C10B (drug-resistant)) is reported as about 3 logs and the CC50 at 48 h (in vitro) is reported as 23.4 µg/mL (≈ 9.63 µM). The “reduction of viral yield in OTG at 48 h” value (HSV-1 [2]; 15 μg/ml during inoculation 2 h at 4°C, apical washes, qPCR, 48 h post-viral inoculation) was 3 logs, the “reduction of viral yield in OTG at 72 h” value (HSV-1 [2]; 15 μg/ml during inoculation 2 h at 4°C, apical washes, qPCR, 72 h post-viral inoculation) was 2 logs and the “morphology of epithelial cells in OTG (H&E)” value (HSV-1 [2]; 15 μg/ml, H&E stained sections, Figure 5A) was “no changes in the morphology of epithelial cells”. For the same compound, the “HSV-1-positive cells in OTG sections (immunohistology)” value (HSV-1 [2]; 15 μg/ml, anti-HSV-1 immunofluorescence, Figure 5B) was “absent” and the “effect on HSV-1 virion integrity” value (HSV-1 [3]) was “no inhibitory effect”.
